Patent publication US8609690B2, “Aryl- and heteroarylcarbonyl derivatives of substituted nortropanes, medicaments containing such compounds and their use” (Boehringer Ingelheim International GmbH, priority 2008, dated 2013)

Target: T1, 11β-HSD 1 (Homo sapiens, UniProt P28845)
T1 construct: detecting cortisol generated from cortisterone by human liver microsomes; from tissue; host or cells: human liver microsomes
Test: In vitro inhibition of 11β-HSD 1, HTRF detection of cortisol generated by human liver microsomes
Type: biochemical
Settings: 1 μM test compound, 100% indicates no inhibition, zero or below zero indicates complete inhibition (relative to carbenoxolone)
Protocol: Briefly, compounds were incubated for 1 hour at 37° C. in Tris buffer (20 mM tris, 5 mM EDTA, pH 6.0) containing NADPH (200 μM) and cortisone (80 nM). Cortisol generated in the reaction is then detected with a competitive immunoassay, involving two HTRF conjugates: cortisol linked to XL665 and anti-cortisol antibody labeled with Europium cryptate. The incubation period for detection reaction was typically 2 hours. The amount of cortisol is determined by reading the time-resolved fluorescence of the wells (Ex 320/75 nm; Em 615/8.5 nm and 665/7.5 nm). The ratio of the two emission signals is then calculated (Em665*10000/Em615). […] Each assay also contained a calibration curve with cortisol to transform the fluorescent data into cortisol concentrations. Percent inhibition of each compound was determined relative to the carbenoxolone signal. In Table 2 the 11β-HSD 1 inhibitory activities at 1 μM concentration of test compound, determined as described above, of the compounds listed in Table 3 are compiled, wherein 100% indicates no inhibition and a value of zero or below zero indicates complete inhibition.

T1 sequence (P28845 whole entry): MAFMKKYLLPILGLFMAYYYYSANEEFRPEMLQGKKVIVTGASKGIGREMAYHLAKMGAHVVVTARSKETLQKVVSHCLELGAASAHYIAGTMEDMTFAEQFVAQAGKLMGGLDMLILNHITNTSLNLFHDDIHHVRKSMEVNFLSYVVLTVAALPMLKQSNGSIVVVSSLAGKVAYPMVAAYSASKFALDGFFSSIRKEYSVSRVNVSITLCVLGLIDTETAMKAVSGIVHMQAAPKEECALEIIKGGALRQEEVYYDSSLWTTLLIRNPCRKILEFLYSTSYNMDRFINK

SMILES	Inhibitory activity on 11β-HSD 1, % CTL [% CTL]	Inhibitory activity on 11β-HSD 1, % CTL (1 µM) [% CTL]
Cn1c(=O)[nH]c2cc(C(=O)N3[C@@H]4CC[C@H]3C[C@@H](c3ccc(F)cc3)C4)ccc21 [Example 59, endo-5-[3-(4-Fluoro-phenyl)-8-aza-bicyclo[3.2.1]octane-8-carbonyl]-1-methyl-1,3-dihydro-benzoimidazol-2-one]	95	
O=C1NCCN1c1cccc(C(=O)N2[C@@H]3CC[C@H]2C[C@@H](c2ccc(F)cc2)C3)c1 [Example 60, endo-1-{3-[3-(4-Fluoro-phenyl)-8-aza-bicyclo[3.2.1]octane-8-carbonyl]-phenyl}-imidazolidin-2-one]	63	
COC(=O)c1cccc(C(=O)N2[C@@H]3CC[C@H]2C[C@@H](c2ccc(F)cc2)C3)c1 [Example 61, endo-3-[3-(4-Fluoro-phenyl)-8-aza-bicyclo[3.2.1]octane-8-carbonyl]-benzoic acid methyl ester]	94	
O=C(c1ccc2cc[nH]c2c1)N1[C@@H]2CC[C@H]1C[C@@H](c1ccc(F)cc1)C2 [Example 62, endo-[3-(4-Fluoro-phenyl)-8-aza-bicyclo[3.2.1]oct-8-yl]-(1H-indol-6-yl)-methanone]	−47	
N#Cc1ccccc1C(=O)N1[C@@H]2CC[C@H]1C[C@@H](c1ccc(F)cc1)C2 [Example 63, endo-2-[3-(4-Fluoro-phenyl)-8-aza-bicyclo[3.2.1]octane-8-carbonyl]-benzonitrile]	91	
CC(=O)Nc1cccc(C(=O)N2[C@@H]3CC[C@H]2C[C@@H](c2ccc(F)cc2)C3)c1 [Example 64, endo-N-{3-[3-(4-Fluoro-phenyl)-8-aza-bicyclo[3.2.1]octane-8-carbonyl]-phenyl}-acetamide]	99	
O=C1CCCN1c1ccc(C(=O)N2[C@@H]3CC[C@H]2C[C@@H](c2ccc(F)cc2)C3)cc1 [Example 65, endo-1-{4-[3-(4-Fluoro-phenyl)-8-aza-bicyclo[3.2.1]octane-8-carbonyl]-phenyl}-pyrrolidin-2-one]	33	
Cn1cnc2cc(C(=O)N3[C@@H]4CC[C@H]3C[C@@H](c3ccc(F)cc3)C4)ccc21 [Example 66, endo-[3-(4-Fluoro-phenyl)-8-aza-bicyclo[3.2.1]oct-8-yl]-(1-methyl-1H-benzoimidazol-5-yl)-methanone]	77	
CS(=O)(=O)c1cccc(C(=O)N2[C@@H]3CC[C@H]2C[C@@H](c2ccc(F)cc2)C3)c1 [Example 67, Endo-[3-(4-Fluoro-phenyl)-8-aza-bicyclo[3.2.1]oct-8-yl]-(3-methanesulfonyl-phenyl)-methanone]	85	
Cn1nnc2cc(C(=O)N3[C@@H]4CC[C@H]3C[C@@H](c3ccc(F)cc3)C4)ccc21 [Example 68, endo-[3-(4-Fluoro-phenyl)-8-aza-bicyclo[3.2.1]oct-8-yl]-(1-methyl-1H-benzotriazol-5-yl)-methanone]	66	
Cc1nc2cc(C(=O)N3[C@@H]4CC[C@H]3C[C@@H](c3ccc(F)cc3)C4)ccc2c(=O)[nH]1 [Example 69, endo-7-[3-(4-Fluoro-phenyl)-8-aza-bicyclo[3.2.1]octane-8-carbonyl]-2-methyl-3H-quinazolin-4-one]	93	
O=C(c1ccc2nccnc2c1)N1[C@@H]2CC[C@H]1C[C@@H](c1ccc(F)cc1)C2 [Example 70, endo-[3-(4-Fluoro-phenyl)-8-aza-bicyclo[3.2.1]oct-8-yl]-quinoxalin-6-yl-methanone]	19	
CC(=O)NCc1ccc(C(=O)N2[C@@H]3CC[C@H]2C[C@@H](c2ccc(F)cc2)C3)cc1 [Example 71, endo-N-{4-[3-(4-Fluoro-phenyl)-8-aza-bicyclo[3.2.1]octane-8-carbonyl]-benzyl}-acetamide]	41	
O=C(c1cccc2[nH]cnc12)N1[C@@H]2CC[C@H]1C[C@@H](c1ccc(F)cc1)C2 [Example 73, endo-(1H-Benzoimidazol-4-yl)-[3-(4-fluoro-phenyl)-8-aza-bicyclo[3.2.1]oct-8-yl]-methanone]	90	
Cc1nc2ccc(C(=O)N3[C@@H]4CC[C@H]3C[C@@H](c3ccc(F)cc3)C4)cc2[nH]1 [Example 74, endo-[3-(4-Fluoro-phenyl)-8-aza-bicyclo[3.2.1]oct-8-yl]-(2-methyl-3H-benzoimidazol-5-yl)-methanone]	69	
O=C1CCCN1c1cccc(C(=O)N2[C@@H]3CC[C@H]2C[C@@H](c2ccc(F)cc2)C3)c1 [Example 75, endo-1-{3-[3-(4-Fluoro-phenyl)-8-aza-bicyclo[3.2.1]octane-8-carbonyl]-phenyl}-pyrrolidin-2-one]	92	

SMILES	Inhibitory activity on 11β-HSD 1, % CTL [% CTL]	Inhibitory activity on 11β-HSD 1, % CTL (1 µM) [% CTL]
O=C(c1ccc2c(c1)OC(F)(F)O2)N1[C@@H]2CC[C@H]1C[C@@H](c1ccc(F)cc1)C2 [Example 76, endo-(2,2-Difluoro-benzo[1,3]dioxol-5-yl)-[3-(4-fluoro-phenyl)-8-aza-bicyclo[3.2.1]oct-8-yl]-methanone]	76	
O=C(c1ccc(F)c(F)c1)N1[C@@H]2CC[C@H]1C[C@@H](c1ccc(F)cc1)C2 [Example 77, endo-(3,4-Difluoro-phenyl)-[3-(4-fluoro-phenyl)-8-aza-bicyclo[3.2.1]oct-8-yl]methanone]	47	
CN1C(=O)Cc2cc(C(=O)N3[C@@H]4CC[C@H]3C[C@@H](c3ccc(F)cc3)C4)ccc21 [Example 78]	49	
CNC(=O)c1ccc(C(=O)N2[C@@H]3CC[C@H]2C[C@@H](c2ccc(F)cc2)C3)cc1 [Example 79, endo-4-[3-(4-Fluoro-phenyl)-8-aza-bicyclo[3.2.1]octane-8-carbonyl]N-methyl-benzamide]	90	
NC(=O)c1ccc(C(=O)N2[C@@H]3CC[C@H]2C[C@@H](c2ccc(F)cc2)C3)cc1 [Example 81, endo-4-[3-(4-Fluoro-phenyl)-8-aza-bicyclo[3.2.1]octane-8-carbonyl]-benzamide]		−9
O=C(c1cccc(CO)c1)N1[C@@H]2CC[C@H]1C[C@@H](c1ccc(F)cc1)C2 [Example 82, endo-[3-(4-Fluoro-phenyl)-8-aza-bicyclo[3.2.1]oct-8-yl]-(3-hydroxymethyl-phenyl)-methanone]	5	
CNc1cccc(C(=O)N2[C@@H]3CC[C@H]2C[C@@H](c2ccc(F)cc2)C3)c1 [Example 83, endo-[3-(4-Fluoro-phenyl)-8-aza-bicyclo[3.2.1]oct-8-yl]-(3-methylamino-phenyl)-methanone]	−30	
NC(=O)c1cccc(C(=O)N2[C@@H]3CC[C@H]2C[C@@H](c2ccc(F)cc2)C3)c1 [Example 84, endo-3-[3-(4-Fluoro-phenyl)-8-aza-bicyclo[3.2.1]octane-8-carbonyl]-benzamide]	41	
O=C(c1ccc(-c2cnco2)cc1)N1[C@@H]2CC[C@H]1C[C@@H](c1ccc(F)cc1)C2 [Example 87, endo-[3-(4-Fluoro-phenyl)-8-aza-bicyclo[3.2.1]oct-8-yl]-(4-oxazol-5-yl-phenyl)-methanone]	−2	
Cc1nc(-c2cccc(C(=O)N3[C@@H]4CC[C@H]3C[C@@H](c3ccc(F)cc3)C4)c2)no1 [Example 88, endo-[3-(4-Fluoro-phenyl)-8-aza-bicyclo[3.2.1]oct-8-yl]-[3-(5-methyl-[1,2,4]oxadiazol-3-yl)-phenyl]-methanone]	98	
O=C(c1cccc(-c2cc[nH]n2)c1)N1[C@@H]2CC[C@H]1C[C@@H](c1ccc(F)cc1)C2 [Example 90, endo-[3-(4-Fluoro-phenyl)-8-aza-bicyclo[3.2.1]oct-8-yl]-[3-(1H-pyrazol-3-yl)-phenyl]-methanone]	42	
O=C(c1cccc(-c2cnco2)c1)N1[C@@H]2CC[C@H]1C[C@@H](c1ccc(F)cc1)C2 [Example 91, endo-[3-(4-Fluoro-phenyl)-8-aza-bicyclo[3.2.1]oct-8-yl]-(3-oxazol-5-yl-phenyl)-methanone]	69	
O=C(c1ccc2scnc2c1)N1[C@@H]2CC[C@H]1C[C@@H](c1ccc(F)cc1)C2 [Example 93, endo-Benzothiazol-5-yl-[3-(4-fluoro-phenyl)-8-aza-bicyclo[3.2.1]oct-8-yl]-methanone]	38	
O=C(c1ccc2ncsc2c1)N1[C@@H]2CC[C@H]1C[C@@H](c1ccc(F)cc1)C2 [Example 94, endo-Benzothiazol-6-yl-[3-(4-fluoro-phenyl)-8-aza-bicyclo[3.2.1]oct-8-yl]-methanone]	12	
O=C1NCc2cccc(C(=O)N3[C@@H]4CC[C@H]3C[C@@H](c3ccc(F)cc3)C4)c21 [Example 95, endo-7-[3-(4-Fluoro-phenyl)-8-aza-bicyclo[3.2.1]octane-8-carbonyl]-2,3-dihydro-isoindol-1-one]	92	
O=C(c1ccccc1)N1[C@@H]2CC[C@H]1C[C@@H](c1ccc(F)cc1)C2 [Example 96, endo-[3-(4-Fluoro-phenyl)-8-aza-bicyclo[3.2.1]oct-8-yl]-phenyl-methanone]	33	
